Data taken from ChEMBL document CHEMBL1201862, “PubChem BioAssay data set” (2004).
“And” between values parts separate entries of the source, which are not always exact repeats. Identical values can stand only once.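 A five-concentration, 48-hour dose response in 96-well plates underlies each endpoint, interpolated linearly between surrounding concentrations. GI50 = concentration required for 50% inhibition of growth.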 The source made the active and inactive calls. Cut-off read from the data, not from the text of the source: active = GI50 up to about 1.1 µM and inactive = higher.

Legend:
Test in all cases: NCI tumour cell line growth inhibition, 48 h
[1] = tested on: NCI-H522
[2] = tested on: NCI-H226
[3] = tested on: MCF7
[4] = tested on: RPMI-8226
[5] = tested on: HCT-116
[6] = tested on: M14
[7] = tested on: MDA-MB-435
[8] = tested on: 786-0
[9] = tested on: SF-268
[10] = tested on: MOLT-4
[11] = tested on: SN12C
[12] = tested on: NCI-H23
[13] = tested on: K562
[14] = tested on: EKVX
[15] = tested on: ACHN
[16] = tested on: HT-29
[17] = tested on: OVCAR-4
[18] = tested on: CAKI-1
[19] = tested on: U-251
[20] = tested on: UO-31
[21] = tested on: UACC-257
[22] = tested on: Hs-578T
[23] = tested on: UACC-62
[24] = tested on: OVCAR-3
[25] = tested on: SR
[26] = tested on: HCC 2998
[27] = tested on: DU-145
[28] = tested on: A549
[29] = tested on: CCRF-CEM
[30] = tested on: SW-620
[31] = tested on: A498
[32] = tested on: SK-MEL-2
[33] = tested on: Malme-3M
[34] = tested on: TK-10
[35] = tested on: PC-3
[36] = tested on: BT-549
[37] = tested on: NCI/ADR-RES
[38] = tested on: LOX IMVI
[39] = tested on: SF-539
[40] = tested on: OVCAR-8
[41] = tested on: SK-MEL-5
[42] = tested on: SF-295
[43] = tested on: HOP-92
[44] = tested on: KM12
[45] = tested on: RXF 393
[46] = tested on: SK-MEL-28
[47] = tested on: NCI-H460
[48] = tested on: IGROV-1
[49] = tested on: HCT-15
[50] = tested on: MDA-MB-231
[51] = tested on: OVCAR-5
[52] = tested on: HOP-62
[53] = tested on: T47D
[54] = tested on: SNB-75
[55] = tested on: COLO 205
[56] = tested on: MDA-N

SMILES: COc1ccc(OC)c([N+](=O)[O-])c1-c1nc2sc(C)cn2c1/C=N/N=C(N)N
- GI50 [1]: 20 µM (inactive)
- GI50 [2]: 36.1 µM (inactive)
- GI50 [3]: 15.1 µM (inactive)
- GI50 [4]: 37.8 µM (inactive)
- GI50 [5]: 39.5 µM (inactive)
- GI50 [6]: 32.8 µM (inactive)
- GI50 [7]: 20.1 µM (inactive)
- GI50 [8]: 44.3 µM (inactive)
- GI50 [9]: 27.6 µM (inactive)
- GI50 [10]: < 0.01 µM (active)
- GI50 [11]: 23.4 µM (inactive)
- GI50 [12]: 22.8 µM (inactive)
- GI50 [13]: 2.49 µM (inactive)
- GI50 [14]: 82.2 µM (inactive)
- GI50 [15]: 41 µM (inactive)
- GI50 [16]: 25.8 µM (inactive)
- GI50 [17]: 22.3 µM (inactive)
- GI50 [18]: 28.7 µM (inactive)
- GI50 [19]: 31.6 µM (inactive)
- GI50 [20]: > 100 µM (inactive)
- GI50 [21]: 18 µM (inactive)
- GI50 [22]: 31 µM (inactive)
- GI50 [23]: 22.7 µM (inactive)
- GI50 [24]: 28.9 µM (inactive)
- GI50 [25]: < 0.01 µM (active)
- GI50 [26]: 20.6 µM (inactive)
- GI50 [27]: 30.3 µM (inactive)
- GI50 [28]: 48.6 µM (inactive)
- GI50 [29]: 42.2 µM (inactive)
- GI50 [30]: 29.9 µM (inactive)
- GI50 [31]: 34.7 µM (inactive)
- GI50 [32]: 21.5 µM (inactive)
- GI50 [33]: 19.1 µM (inactive)
- GI50 [34]: 20.6 µM (inactive)
- GI50 [35]: 23.3 µM (inactive)
- GI50 [36]: 15.2 µM (inactive)
- GI50 [37]: > 100 µM (inactive)
- GI50 [38]: 70.1 µM (inactive)
- GI50 [39]: 38.4 µM (inactive)
- GI50 [40]: 25.7 µM (inactive)
- GI50 [41]: 18.7 µM (inactive)
- GI50 [42]: 24.3 µM (inactive)
- GI50 [43]: 17.5 µM (inactive)
- GI50 [44]: 20.5 µM (inactive)
- GI50 [45]: 28.2 µM (inactive)
- GI50 [46]: 21.4 µM (inactive)
- GI50 [47]: 29.6 µM (inactive)
- GI50 [48]: 14.5 µM (inactive)
- GI50 [49]: > 100 µM
- GI50 [50]: 23.7 µM (inactive)
- GI50 [51]: 51.4 µM (inactive)
- GI50 [52]: 43.5 µM (inactive)

SMILES: COC(=O)C1C(O)CCC2CN3CCc4c([nH]c5ccccc45)C3CC21 (stereo unspecified)
- GI50 [1]: > 100 µM (inactive)
- GI50 [2]: > 100 µM (inactive)
- GI50 [3]: > 100 µM (inactive) and > 72.9 µM (inactive)
- GI50 [4]: > 100 µM (inactive)
- GI50 [5]: > 100 µM (inactive)
- GI50 [6]: > 100 µM (inactive)
- GI50 [9]: > 78 µM (inactive)
- GI50 [53]: > 71.4 µM (inactive)
- GI50 [11]: > 100 µM (inactive)
- GI50 [12]: > 100 µM (inactive)
- GI50 [13]: > 100 µM (inactive)
- GI50 [14]: > 91 µM (inactive)
- GI50 [16]: > 100 µM (inactive) and 72.8 µM (inactive)
- GI50 [20]: 54.2 µM (inactive)
- GI50 [21]: > 87.1 µM (inactive)
- GI50 [22]: > 100 µM (inactive)
- GI50 [23]: > 100 µM (inactive)
- GI50 [26]: > 100 µM (inactive)
- GI50 [27]: > 100 µM (inactive) and > 87.7 µM (inactive)
- GI50 [31]: > 100 µM (inactive)
- GI50 [32]: > 100 µM (inactive) and > 80.5 µM (inactive)
- GI50 [54]: 56 µM (inactive)
- GI50 [33]: > 68.1 µM (inactive)
- GI50 [55]: > 100 µM (inactive) and > 68.7 µM (inactive)
- GI50 [34]: > 100 µM (inactive)
- GI50 [37]: > 100 µM (inactive)
- GI50 [38]: > 100 µM (inactive)
- GI50 [39]: > 100 µM (inactive)
- GI50 [56]: > 100 µM (inactive) and > 92 µM (inactive)
- GI50 [40]: > 100 µM (inactive)
- GI50 [41]: > 100 µM (inactive)
- GI50 [42]: > 100 µM (inactive)
- GI50 [43]: > 51.4 µM (inactive)
- GI50 [44]: > 95.1 µM (inactive)
- GI50 [45]: > 100 µM (inactive)
- GI50 [48]: 67.1 µM (inactive)
- GI50 [49]: > 67.3 µM
- GI50 [50]: > 100 µM (inactive)
- GI50 [51]: > 66.2 µM (inactive)
